The text below walks through data of patent publication US6228868A, “Oxazoline antiproliferative agents” (Abbott Laboratories, priority 1999, dated 2001).

The test system of one assay is NCI-H460 cells. As to the kind of experiment: 48-hour cellular proliferation assay, sulforhodamine stain (human lung large cell carcinoma, MDR negative). Format: cell-based. The note with it: NCI-H460 cells. How it is done:
(§1) Compounds of this invention were tested in a 48-hour cellular proliferation assay that uses human colon adenocarcinoma, MDR positive (HCT-15) cells, and human lung large cell carcinoma, MDR negative (NCI-H460) cells, in the 96-well microtitre format described in Skehan P., et al. New Colorimetric Cytotoxicity Assay for Anticancer Drug Screening. 1990, J. Natl. Cancer Inst. 82:1107-1112, hereby incorporated by reference. Briefly, the wells of a microtitre plate were charged sequentially with cultured cells and compounds of the invention (1.0×10^-4 to 1.0×10^-11 M in 10% DMSO prepared by dissolving compounds of the invention in DMSO and adding 11 μL of the DMSO solution to 100 μL of culture medium for a final DMSO concentration of 10%). Two of the following controls were also present in each microtitre plate: a solvent (DMSO) control without drug that yielded a 0% inhibition level and a trichloroacetic acid-treated well that yielded a 100% inhibition level. The cells were grown in culture (37° C., 5% CO2 atmosphere) for 48 hours then fixed by the addition of trichloroacetic acid. The wells were stained with sulforhodamine, washed with 1% acetic acid, and treated with 0.01 M tris buffer (100 μL) to solubilize the adherent dye. The absorbance of the dye solution was measured with a Molecular Devices SpectraMax340 plate reader. Percent inhibition and Inhibitory Concentrations (IC50) values were obtained by calculating the proportional response of the experimental values to the absorbance values of the controls.

The next assay concerns HCT-15 cells. As to the kind of experiment: 48-hour cellular proliferation assay, sulforhodamine stain (human colon adenocarcinoma, MDR positive). The format is cell-based. How it is done: as §1
Setting [1] is: Homo sapiens, values given in μM.

Each structure is given as a SMILES string.

In general, IC50 refers to the concentration that inhibits the measured activity by half. With `COc1cc(C2CN=C(c3cccc4cc[nH]c34)O2)cc(OC)c1OC` (centres unmarked) [Example 31, 2-(7-indolyl)-5-(3,4,5-trimethoxyphenyl)-Δ2,3-oxazoline], the IC50 with NCI-H460 cells (Homo sapiens, values in nM) turned out to be 470 nM; in the assay on HCT-15 cells (Homo sapiens, values in nM), 580 nM.
Take `COc1cc(C2CN=C(c3cn(C)c4ccccc34)O2)cc(OC)c1OC` (centres unmarked) [Example 33, 2-(1-methylindol-3-yl)-5-(3,4,5-trimethoxyphenyl)-Δ2,3-oxazoline]: the IC50 worked out at 120 nM in the assay with NCI-H460 cells (Homo sapiens, values in nM) and 32 nM with HCT-15 cells (Homo sapiens, values in nM).
The like results for `COc1cc(C2CN=C(c3cc4ccccc4n3C)O2)cc(OC)c1OC` (centres unmarked) [Example 34, 2-(1-methyl-indol-2-yl)-5-(3,4,5-trimethoxyphenyl)-Δ2,3-oxazoline] were, in that order, 1500 nM and 650 nM.
For the molecule `COc1cc(C2CN=C(c3ccc4ncccc4c3)O2)cc(OC)c1OC` (centres unmarked) [Example 35, 2-(6-guinolinvl)-5-(3,4,5-trimethoxyphenyl)-Δ2,3-oxazoline], the IC50 with NCI-H460 cells (setting [1]) turned out to be 3200 nM; with HCT-15 cells (setting [1]), 2400 nM.
As for `COc1cc(C2CN=C(c3ccnc4ccccc34)O2)cc(OC)c1OC` (centres unmarked) [Example 37, 2-(4-quinolinyl)-5-(3,4,5-trimethoxyphenyl)-Δ2,3-oxazoline], the values for the IC50 in the assay with NCI-H460 cells (setting [1]) and in the assay with HCT-15 cells (setting [1]) were 37000 nM and 44000 nM, respectively.
Regarding `COc1cc(C2CN=C(c3nccc4ccccc34)O2)cc(OC)c1OC` (centres unmarked) [Example 38, 2-(1-isoquinolinyl)-5-(3,4,5-trimethoxyphenyl)-Δ2,3-oxazoline], the IC50 in the assay with NCI-H460 cells (setting [1]) was determined as 78000 nM; with HCT-15 cells (setting [1]) it was 63000 nM.
In the case of `COc1ccc(C2=NCC(c3cc(OC)c(OC)c(OC)c3)O2)cc1N` (centres unmarked) [Example 39, 2-(3-amino-4-methoxyphenyl)-5-(3,4,5-trimethoxyphenyl)-Δ2,3-oxazoline], the IC50 in the assay with NCI-H460 cells (Homo sapiens, values in nM) was 68 nM; in the assay with HCT-15 cells (Homo sapiens, values in nM) it was 33 nM.
Regarding `COc1cc(C2CN=C(c3ccc(C)c(N)c3)O2)cc(OC)c1OC` (centres unmarked) [Example 40, 2-(3-amino-4-methyphenyl)-5-(3,4,5-trimethoxyphenyl)-Δ2,3-oxazoline], the IC50 with NCI-H460 cells (Homo sapiens, values in nM) was determined as 82 nM; in the assay with HCT-15 cells (Homo sapiens, values in nM), 62 nM.
With `COc1ccc(C2=NCC(c3cc(OC)c(OC)c(OC)c3)O2)cc1NC(=O)C(C)NC(=O)C(C)N` (centres unmarked) [Example 41], the values for the IC50 with NCI-H460 cells (values in nM) and in the assay on HCT-15 cells (values in nM) were 590 nM and 520 nM, respectively.
For `COc1ccc(C2=NCC(c3cc(OC)c(OC)c(OC)c3)O2)cc1NC(=O)[C@@H](N)CO` (some centres unmarked) [Example 44], the IC50 came out at 3800 nM with NCI-H460 cells (setting [1]) and 6600 nM in the assay with HCT-15 cells (setting [1]).
For the molecule `COc1cc(C2CN=C(c3ccn(C)c(=O)c3)O2)cc(OC)c1OC` (centres unmarked) [Example 46, 2-(1-methyl-1H-pyridin-2-on-4-yl)-5-(3,4,5-trimethoxyphenyl)-Δ2,3-oxazoline], the IC50 in the assay with NCI-H460 cells (Homo sapiens, values in nM) came out at 470 nM; in the assay on HCT-15 cells (Homo sapiens, values in nM), 440 nM.
As to `COc1cc(C2CN=C(c3ccc4c(ccn4C(=S)SC)c3)O2)cc(OC)c1OC` (centres unmarked) [Example 56, 2-(1-methlthiothiocarbonylindol-5-yl)-5-(3,4,5-trimethoxyphenyl)-Δ2,3-oxazoline], the IC50 was found to be 6000 nM in the assay on NCI-H460 cells (setting [1]) and 12000 nM in the assay on HCT-15 cells (setting [1]).
Take `COc1cc(C2CN=C(c3cc4ccn(C)c4cc3Cl)O2)cc(OC)c1OC` (centres unmarked) [Example 60, 2-(6-Chloro-1-methylindol-5-yl)-5-(3,4,5-trimethoxyphenyl)-Δ2,3-oxazoline]: the IC50 amounted to 410 nM in the assay on NCI-H460 cells (Homo sapiens, values in nM) and 280 nM with HCT-15 cells (Homo sapiens, values in nM).
For `COc1cc(C2CN=C(c3ccc4c(ccn4C(F)F)c3)O2)cc(OC)c1OC` (centres unmarked) [Example 61, 2-(1-difluoromethylindol-5-yl)-5-(3,4,5-trimethoxyphenyl)-Δ2,3-oxazoline], the IC50 stood at 1.8 nM with NCI-H460 cells (Homo sapiens, values in nM) and 1.9 nM in the assay with HCT-15 cells (Homo sapiens, values in nM).
The like results for `COc1cc(C2CN=C(c3ccc4c(c3)c(Cl)cn4C)O2)cc(OC)c1OC` (centres unmarked) [Example 62, 2-(3-chloro-1-methylindol-5-yl)-5-(3,4,5-trimethoxyphenyl)-Δ2,3-oxazoline] were, in that order, 37 nM and 23 nM.
Take `COc1cc(C2CN=C(c3cc(F)c4[nH]ccc4c3)O2)cc(OC)c1OC` (centres unmarked) [Example 63, 2-(7-fluoro-5-indolyl)-5-(3,4,5-trimethoxyphenyl)-Δ2,3-oxazoline]: the IC50 turned out to be 43 nM in the assay on NCI-H460 cells (Homo sapiens, values in nM) and 20 nM in the assay on HCT-15 cells (Homo sapiens, values in nM).
